Source: ChEMBL document CHEMBL4251612, “Naturally occurring Diels-Alder-type adducts from Morus nigra as potent inhibitors of Mycobacterium tuberculosis protein tyrosine phosphatase B” (Eur J Med Chem, 2018)
pIC50, pKd, pKi: −log10 of the molar value. In brackets after ≈: the same amount, converted by molar mass. Activity calls are given as the source filed them. The calls are words filed in the database; no cut-off is given here.

Legend:
[1] = molecular target: T1, Tyrosine-protein phosphatase non-receptor type 1 (Homo sapiens, UniProt P18031); test: Inhibition of human PTP1B using p-nitrophenyl phosphate as substrate preincubated for 10 mins followed by substrate addition measured every minute for 10 mins by UV-VIS spectrophotometric analysis
T1 sequence (P18031 whole entry): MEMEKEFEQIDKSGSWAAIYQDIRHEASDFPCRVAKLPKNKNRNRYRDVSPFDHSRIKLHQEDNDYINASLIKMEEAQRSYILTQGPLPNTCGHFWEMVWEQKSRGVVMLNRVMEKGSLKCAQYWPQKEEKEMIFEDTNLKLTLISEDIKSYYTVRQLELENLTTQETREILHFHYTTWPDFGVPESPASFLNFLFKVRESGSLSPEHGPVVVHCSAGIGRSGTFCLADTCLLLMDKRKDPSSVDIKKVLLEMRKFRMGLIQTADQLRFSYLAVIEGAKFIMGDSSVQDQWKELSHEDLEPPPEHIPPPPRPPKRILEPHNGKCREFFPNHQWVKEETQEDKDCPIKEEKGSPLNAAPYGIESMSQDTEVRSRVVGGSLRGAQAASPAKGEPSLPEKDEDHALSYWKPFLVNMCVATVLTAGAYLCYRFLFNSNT

[2] = molecular target: T2, Low molecular weight protein-tyrosine phosphatase A (Mycobacterium tuberculosis, UniProt P9WIA1); test: Inhibition of Mycobacterium tuberculosis PtpA using p-nitrophenyl phosphate as substrate preincubated for 10 mins followed by substrate addition measured every minute for 10 mins by UV-VIS spectrophotometric analysis
T2 sequence (P9WIA1 whole entry): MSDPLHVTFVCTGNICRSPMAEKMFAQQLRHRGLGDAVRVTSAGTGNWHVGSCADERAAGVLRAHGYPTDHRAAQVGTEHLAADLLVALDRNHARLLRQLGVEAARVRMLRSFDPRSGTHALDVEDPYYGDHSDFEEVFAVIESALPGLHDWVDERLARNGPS

[3] = molecular target: T3, Tyrosine-protein phosphatase non-receptor type 12 (Homo sapiens, UniProt Q05209); test: Inhibition of PTP-PEST (unknown origin) using p-nitrophenyl phosphate as substrate preincubated for 10 mins followed by substrate addition measured every minute for 10 mins by UV-VIS spectrophotometric analysis
T3 sequence (Q05209 whole entry): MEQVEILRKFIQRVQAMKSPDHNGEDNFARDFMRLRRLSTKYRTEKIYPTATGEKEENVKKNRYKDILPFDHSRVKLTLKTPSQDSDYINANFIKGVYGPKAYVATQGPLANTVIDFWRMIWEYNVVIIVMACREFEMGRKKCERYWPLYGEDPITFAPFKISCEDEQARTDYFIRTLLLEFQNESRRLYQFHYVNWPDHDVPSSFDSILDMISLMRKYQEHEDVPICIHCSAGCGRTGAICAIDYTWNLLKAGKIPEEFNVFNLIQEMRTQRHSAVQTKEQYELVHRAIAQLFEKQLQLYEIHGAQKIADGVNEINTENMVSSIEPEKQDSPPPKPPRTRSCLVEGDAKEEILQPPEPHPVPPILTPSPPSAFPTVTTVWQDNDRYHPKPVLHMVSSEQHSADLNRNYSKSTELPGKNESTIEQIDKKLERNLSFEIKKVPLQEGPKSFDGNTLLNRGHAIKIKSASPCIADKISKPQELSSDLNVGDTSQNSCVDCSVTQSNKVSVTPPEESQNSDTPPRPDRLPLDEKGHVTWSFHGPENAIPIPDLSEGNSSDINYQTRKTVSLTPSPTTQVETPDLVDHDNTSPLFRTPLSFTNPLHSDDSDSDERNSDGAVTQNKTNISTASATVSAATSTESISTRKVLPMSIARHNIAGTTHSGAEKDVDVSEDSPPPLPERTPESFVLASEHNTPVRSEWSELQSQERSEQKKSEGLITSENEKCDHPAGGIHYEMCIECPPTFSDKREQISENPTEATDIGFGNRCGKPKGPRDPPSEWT

[4] = molecular target: T4, Phosphotyrosine protein phosphatase (Mycobacterium tuberculosis, UniProt A0A045ISB3); test: Inhibition of Mycobacterium tuberculosis PtpB using p-nitrophenyl phosphate as substrate preincubated for 10 mins followed by substrate addition measured every minute for 10 mins by UV-VIS spectrophotometric analysis
T4 sequence (A0A045ISB3 whole entry): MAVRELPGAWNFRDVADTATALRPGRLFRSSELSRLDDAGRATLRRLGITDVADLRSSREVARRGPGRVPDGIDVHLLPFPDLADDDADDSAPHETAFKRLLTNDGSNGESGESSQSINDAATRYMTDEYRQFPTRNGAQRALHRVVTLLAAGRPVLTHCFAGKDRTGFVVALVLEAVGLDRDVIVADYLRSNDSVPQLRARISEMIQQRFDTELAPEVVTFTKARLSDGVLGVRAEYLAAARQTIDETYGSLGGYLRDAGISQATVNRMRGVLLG

[5] = molecular target: T5, Tyrosine-protein phosphatase non-receptor type 22 (Homo sapiens, UniProt Q9Y2R2); test: Inhibition of LYP (unknown origin) using p-nitrophenyl phosphate as substrate preincubated for 10 mins followed by substrate addition measured every minute for 10 mins by UV-VIS spectrophotometric analysis
T5 sequence (Q9Y2R2 whole entry): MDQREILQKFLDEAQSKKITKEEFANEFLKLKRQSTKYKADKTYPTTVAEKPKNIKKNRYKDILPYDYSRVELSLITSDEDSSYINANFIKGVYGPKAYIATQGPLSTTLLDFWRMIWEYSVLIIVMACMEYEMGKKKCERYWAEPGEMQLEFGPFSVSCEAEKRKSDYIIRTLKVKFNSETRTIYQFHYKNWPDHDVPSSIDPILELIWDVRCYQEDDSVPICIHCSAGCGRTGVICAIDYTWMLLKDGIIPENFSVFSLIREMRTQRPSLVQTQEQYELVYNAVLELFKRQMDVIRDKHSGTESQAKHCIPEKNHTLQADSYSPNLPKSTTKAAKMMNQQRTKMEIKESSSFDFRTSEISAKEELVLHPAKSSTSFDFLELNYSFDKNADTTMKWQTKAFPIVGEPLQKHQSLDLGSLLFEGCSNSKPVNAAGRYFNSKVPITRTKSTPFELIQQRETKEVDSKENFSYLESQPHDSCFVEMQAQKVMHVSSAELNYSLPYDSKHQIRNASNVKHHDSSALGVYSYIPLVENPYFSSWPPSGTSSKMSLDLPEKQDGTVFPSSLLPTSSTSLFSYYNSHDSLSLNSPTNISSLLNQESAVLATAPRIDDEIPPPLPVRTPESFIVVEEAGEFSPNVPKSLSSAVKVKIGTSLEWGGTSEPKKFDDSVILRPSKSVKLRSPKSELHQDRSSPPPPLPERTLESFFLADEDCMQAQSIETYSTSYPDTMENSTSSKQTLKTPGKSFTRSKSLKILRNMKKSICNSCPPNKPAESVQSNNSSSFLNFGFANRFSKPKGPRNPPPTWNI

[6] = molecular target: T4, Phosphotyrosine protein phosphatase; test: Binding affinity to Mycobacterium tuberculosis PtpB by fluorescence based assay
[7] = test system: Mycobacterium tuberculosis; test: Antitubercular activity against Mycobacterium tuberculosis H37Ra ATCC 25177 after 7 days by resazurin microtiter assay; type: functional; conditions: H37Ra ATCC 25177, 168 h
[8] = molecular target: T1, Tyrosine-protein phosphatase non-receptor type 1; test: Non-competitive inhibition of human PTP1B using p-nitrophenyl phosphate as substrate up to 7 uM preincubated for 10 mins followed by substrate addition measured every minute for 10 mins by Michaelis-Menten plot analysis
[9] = molecular target: T6, Phosphotyrosine protein phosphatase (Mycobacterium tuberculosis) (UniProt A0A045ISB3); test: Binding affinity to Mycobacterium tuberculosis PtpB assessed as sequence coverage level at 100 uM preincubated for 10 mins before trypsin addition by mass spectrometry based peptide mass fingerprint assay (reference value: 92%)
T6 sequence (whole entry): T4 sequence (A0A045ISB3 whole entry)

[10] = molecular target: T6, Phosphotyrosine protein phosphatase (Mycobacterium tuberculosis); test: Binding affinity to Mycobacterium tuberculosis PtpB assessed as binding constant by ITC method
[11] = molecular target: T6, Phosphotyrosine protein phosphatase (Mycobacterium tuberculosis); test: Binding affinity to Mycobacterium tuberculosis PtpB assessed as protection against proteolytic cleavage at 100 to 400 uM preincubated for 10 mins before trypsin addition by mass spectrometry
[12] = Selectivity index, ratio of Ki for human PTP1B to Ki for Mycobacterium tuberculosis PtpB
[13] = molecular target: T6, Phosphotyrosine protein phosphatase (Mycobacterium tuberculosis); test: Reversible inhibition of Mycobacterium tuberculosis PtpB using p-nitrophenyl phosphate as substrate assessed as enzyme recovery at 10 times IC50 preincubated for 10 mins followed by 100-fold dilution; parameters: scale not given: the % may be the effect or the level left
[14] = molecular target: T6, Phosphotyrosine protein phosphatase (Mycobacterium tuberculosis); test: Time independent inhibition of Mycobacterium tuberculosis PtpB at 0.2 uM pre-incubated for 0 to 10 mins before p-nitrophenyl phosphate substrate addition
[15] = molecular target: T6, Phosphotyrosine protein phosphatase (Mycobacterium tuberculosis); test: Ratio of Kd for binding affinity to Mycobacterium tuberculosis PtpB by fluorescence based assay to Kd for binding affinity to Mycobacterium tuberculosis PtpB by ITC method
[16] = molecular target: T4, Phosphotyrosine protein phosphatase; test: Binding affinity to Mycobacterium tuberculosis PtpB by UV-VIS spectrophotometric analysis
[17] = molecular target: T6, Phosphotyrosine protein phosphatase (Mycobacterium tuberculosis); test: Binding affinity to Mycobacterium tuberculosis PtpB assessed as binding constant by fluorescence based assay
[18] = molecular target: T6, Phosphotyrosine protein phosphatase (Mycobacterium tuberculosis); test: Non-competitive inhibition of Mycobacterium tuberculosis PtpB using p-nitrophenyl phosphate as substrate up to 0.3 uM preincubated for 10 mins followed by substrate addition measured every minute for 10 mins by Michaelis-Menten plot analysis
[19] = molecular target: T7, Tyrosine-protein phosphatase non-receptor type 1 (Homo sapiens) (UniProt P18031); test: Binding affinity to human PTP1B assessed as protection against proteolytic cleavage at 400 uM preincubated for 10 mins before trypsin addition and measured after 2 hrs by mass spectrometry
T7 sequence (whole entry): T1 sequence (P18031 whole entry)

[20] = Cytotoxicity against human THP1 cells after 72 hrs by MTT assay; type: cell-based; conditions: THP-1 cells
[21] = molecular target: T6, Phosphotyrosine protein phosphatase (Mycobacterium tuberculosis); test: Binding affinity to Mycobacterium tuberculosis PtpB assessed as fluorescence quenching at 0.1 to 4.7 uM by spectropolarimetry
[22] = test system: Mycobacterium tuberculosis; test: Antitubercular activity against Mycobacterium tuberculosis H37Ra ATCC 25177 infected in human THP1 cells assessed as reduction in CFU at 14.4 uM after 72 hrs relative to control; type: functional; conditions: H37Ra ATCC 25177, THP-1, 72 h, read-out: GI
[23] = molecular target: T4, Phosphotyrosine protein phosphatase; test: Inhibition of Mycobacterium tuberculosis PtpB using p-nitrophenyl phosphate as substrate preincubated for 10 mins followed by substrate addition measured every minute for 10 mins by Michaelis-Menten plot analysis
[24] = molecular target: T6, Phosphotyrosine protein phosphatase (Mycobacterium tuberculosis); test: Binding affinity to Mycobacterium tuberculosis PtpB assessed as Stern-Volmer quenching constant by UV-VIS spectrophotometric analysis
[25] = molecular target: T4, Phosphotyrosine protein phosphatase; test: Binding affinity to Mycobacterium tuberculosis PtpB by ITC method

| SMILES | pIC50 [1] | pIC50 [2] | pIC50 [3] | pIC50 [4] | pIC50 [5] | also measured |
| --- | --- | --- | --- | --- | --- | --- |
| CC(C)=CCc1c(-c2ccc(O)cc2O)oc2c3c(cc(O)c2c1=O)OC(C)(C)C=C3 [MORUSIN] | 4.99 | 5.33 | < 4.00 | 5.28 | 4.82 |  |
| CC(C)=CCc1c(-c2ccc(O)cc2O)oc2c([C@@H]3C=C(C)C[C@H](c4ccc(O)cc4O)[C@H]3C(=O)c3ccc(O)cc3O)c(O)cc(O)c2c1=O | 5.34 | 5.23 | 4.91 | 6.08 | 4.73 | pKd [6]: 6.15; MIC [7]: 32 µg/mL (≈ 46.2 µM); pKi [8]: 6.70; Activity [9]: 90%; Ka [10]: 3.5 ×10⁵ /M; Activity [11]: Active; Ratio Ki [12]: 26; Activity [13]: 40%; inhibition [14]: Active; Ratio [15]: 2; pKd [16]: 6.00; Ka [17]: 1.4 ×10⁶ /M; inhibition [18]: Active; Activity [19]: inactive; CC50 at 72 h [20]: 33.8 µg/mL (≈ 48.8 µM); Activity [21]: Active; inhibition of growth at 14.4 µM [22]: 61.3%; pKi [23]: 6.41; Ka [24]: 1 ×10⁶ /M; pKd [25]: 5.54 |
| O=c1cc(-c2ccc(O)cc2O)oc2cc(O)cc(O)c12 [NORARTOCARPETIN] | 5.29 | 4.92 | 4.68 | 5.92 | 4.52 |  |
| CC(C)=CCc1c(O)ccc(C(=O)[C@H]2[C@@H](c3c(O)cc(-c4cc5ccc(O)cc5o4)cc3O)C=C(C)C[C@@H]2c2ccc(O)cc2O)c1O [CHALCOMORACIN] | 5.71 | 5.61 | 5.07 | 5.84 | 5.14 |  |
| CC(C)=CCc1c(O)cc2c(c1O)C(=O)C[C@@H](c1cc3c(cc1O)OC(C)(C)C=C3)O2 [CUDRAFLAVANONE A] | 5.37 | 5.56 | 4.73 | 5.29 | 5.02 |  |
